“Also recorded” adds a separate entry of the source.
Key:
[1] = test system: Jurkat cells; test: Proliferation assay (Cell Titer Glo, 5 days) of wild type and knock-out Jurkat cells; assay type: cell-based, human; conditions: 5 days
Description: sgRNAs (oligonucleotide sequences are indicated above) were cloned into lentiCRISPR-v1 linearized with BsmBI by Gibson Assembly (NEB). sgRNA expressing vector along with lentiviral packaging vectors Delta-VPR and CMV VSVG were transfected into HEK-293T cells using the XTremeGene 9 transfection reagent (Roche). Similarly, for overexpression cell lines, cDNA vectors along with retroviral packaging vectors gag-pol and CMV VSV-G were transfected into HEK-293T cells. Media was changed 24 hours after transfection.

[2] = test system: 143B WT cybrid cells; test: Proliferation assay of respiration-competent 143B WT cybrid cells; assay type: cell-based; conditions: presence or absence of the substance
Description: (§1) 143B, A172, H1299, HeLa, U87 and MEF cells were cultured in Dulbecco's Modified Eagle's Medium (DMEM) (Gibco) supplemented with 10% fetal bovine serum (FBS) and penicillin-streptomycin. FL5.12 cells were cultured in the same medium and supplemented with 5 μg/mL recombinant mouse IL-3 (R&D Systems). 143B cybrid cell lines (WT Cybrid and CytB) were cultured in DMEM with 10% FBS, penicillin-streptomycin, and 0.1 mg/mL uridine. All cells incubated at 37° C. with 5% CO2.
(§2) Adherent cell lines growing in log phase were trypsinized, counted, and plated onto 6 well dishes (Corning) in 2 mL complete DMEM and incubated overnight. Initial seeding density was 2E4 cells per well for 143B, A172, H1299, HeLa, 143B WT Cybrid, and MEFs and 3E4 cells for 143B CytB and U87 cells. The following day, one plate of cells was counted to determine the initial cell count at the time of treatment. Cells were washed 2 times with 2 mL phosphate buffered saline (PBS) and 4 mL media premixed with the indicated treatments was added. FL5.12 cells, a suspension cell line, were washed 2 times in PBS and added directly to media containing the indicated treatments and 5 μg/mL recombinant mouse IL-3. Proliferation rate assay media was DMEM without pyruvate containing 10% dialyzed FBS, penicillin-streptomycin, and 0.1 mg/mL uridine, unless otherwise noted. For these cell lines at these seeding densities it was determined that for 4 days the cells maintained logarithmic proliferation (data not shown), therefore final cell counts were measured 4 days after treatment. Cells were counted using Cellometer Auto T4 Plus Cell Counter (Nexcelom Bioscience). Proliferation rate was determined using the following formula: Proliferation Rate (Doublings per day)=(log2(Final cell count (day 5)/Initial cell count (day 1))/4 (days)

[3] = test system: 143B CytB cells; test: Measurement of NAD+/NADH (NAD/NADH Glo) in 143B CytB cells; assay type: cell-based; conditions: absence or presence of the substance
Description: NAD^+/NADH measurements were done using a modified version of manufacturer instructions of NAD/NADH Glo Assay (Promega). Cells were plated and treated as for proliferation assays and cell extracts were taken 6 hours after treatment. For extraction, cells were quickly washed 3 times in ice cold PBS, extracted in 100 μL ice cold lysis buffer (1% Dodecyltrimethylammonium bromide (DTAB) in 0.2 N NaOH diluted 1:1 with PBS), and immediately frozen at −80° C. To measure NADH, 20 μL of sample was moved to PCR tubes and incubated at 75° C. for 30 min, where the basic conditions will selectively degrade NAD^+. To measure NAD^+, 20 μL of the samples was moved to PCR tubes containing 20 μL lysis buffer and 20 μL 0.4 N HCl and incubated at 60° C. for 15 min, where acidic conditions will degrade NADH. Following incubations, samples were allowed to equilibrate to room temperature and then quenched by neutralizing with 20 μL 0.25 M Tris in 0.2 N HCl (NADH) or 20 μL 0.5 M Tris base (NAD^+). Manufacturer instructions were followed thereafter to measure NAD^+/NADH.

[4] = test system: 143B CytB cells; test: Proliferation assay of respiration-incompetent 143B CytB cybrid cells; assay type: cell-based; conditions: for Proliferation rate of 143B CytB cells: media supplemented with the substance, no pyruvate unless tested, uridine present
Description: FL5.12 cells were cultured in the same medium and supplemented with 5 μg/mL recombinant mouse IL-3 (R&D Systems). […] All cells incubated at 37° C. with 5% CO2.
as §2, with “Initial seeding density was 2E4 cells per well for 143B, A172, H1299, HeLa, 143B WT Cybrid, and MEFs and 3E4 cells for 143B CytB and U87 cells.” left out, “For these cell lines at these seeding densities it was determined that for 4 days the cells maintained logarithmic proliferation (data not shown), therefore final cell counts were measured 4 days after treatment.” left out

[5] = test system: 143B WT cybrid and 143B CytB cells; test: Mitochondrial oxygen consumption (Seahorse XF24), cybrid cells; assay type: cell-based; conditions: presence or absence of the substance
Description: Oxygen consumption rates were determined on a Seahorse Bioscience Extracellular Flux Analyzer (XF24). Cells were plated in Seahorse Bioscience 24 well plates at 6E4 cells per well in 100 μL complete DMEM, allowed to attach for 1 hour, and 500 μl complete DMEM was added before overnight incubation. The following day cells were washed 2 times in assay media: DMEM without phenol red or pyruvate containing 0.5% dialyzed FBS and 0.1 mg/mL uridine at pH 7.4 and incubated in 500 μL of the same media for the assay. Oxygen consumption measurements were compared either, between basal measurements and following injection of the compound (AKB, rotenone, antimycin), or between wells cultured overnight in their treatment conditions (aspartate, oligomycin, FCCP). The latter conditions were used due to solubility constraints (aspartate) or kinetic constraints of the compound (oligomycin). These measurements were then subtracted from oxygen consumption measurements following addition of high dose rotenone and antimycin treatment (2 μM each) to determine the mitochondria specific oxygen consumption rate. Following measurements, the number of cells in the wells was counted, averaged for each treatment condition, and the mitochondrial oxygen consumption rates were normalized to 1E5 cells.

[6] = test system: 143B cells; test: Proliferation assay of wild-type 143B cells treated with respiration inhibitors; assay type: cell-based; conditions: for Proliferation of respiration-inhibited 143B cells with supplementation: rotenone, phenformin, antimycin, myxothiazol, azide or oligomycin plus the substance; for Proliferation of rotenone treated 143B cells: wide range of rotenone doses, 1 mM AKB or 20 mM aspartate, 4 days
Description: as §1, §2

[7] = pyruvate (1 mM), phenformin, piericidin, antimycin

SMILES | Proliferation of ETC inhibitor-treated MDH1-null Jurkat cells with pyruvate ([1]; pyruvate (1 mM)) | Proliferation of ETC inhibitor-treated PC-null Jurkat cells with pyruvate ([1]; pyruvate (1 mM), phenformin (10 μM), antimycin (1 μM) or piericidin (0.5 μM)) | Proliferation of ETC inhibitor-treated wild type Jurkat cells with pyruvate [1, 7] | Viability and proliferation of ETC inhibitor-treated GOT1-null Jurkat cells with pyruvate [1, 7] | Proliferation rate of 143B WT cybrid cells [2] | Cellular NAD+/NADH ratio [3] | Proliferation rate of 143B CytB cells [4] | Mitochondrial oxygen consumption rate [5] | Proliferation of respiration-inhibited 143B cells with supplementation [6] | Proliferation of rotenone treated 143B cells [6] | Uridine auxotrophy of 143B CytB cells ([4]; AKB in the presence or absence of uridine) | Proliferation of phenformin-treated wild-type Jurkat cells with aspartate ([1]; aspartate (10 mM) in RPMI) | Viability and proliferation of phenformin-treated GOT1-null Jurkat cells with aspartate ([1]; aspartate (10 mM) in RPMI) | Cell permeability ([4]; inferred from supra-physiological doses required to restore growth)
CC(=O)C(=O)O [pyruvate] | did not stimulate aspartate synthesis or rescue proliferation; also recorded: does not rescue the proliferation of phenformin-treated MDH1 null cells | still prevented the anti-proliferative effects of ETC inhibitors; also recorded: can rescue the death of PC-null cells induced by ETC inhibition | almost completely blocked the anti-proliferative effects of several ETC inhibitors | cannot rescue death of GOT1-null cells induced by ETC inhibitors; also recorded: no beneficial effect on the GOT1-null cells | divide at a similar rate; also recorded: does not impact proliferation of 143B WT cybrids | sufficient to increase the cellular NAD^+/NADH ratio | divide at a similar rate |  |  |  |  |  |  | 
CCC(=O)C(=O)O [AKB, α-ketobutyrate] |  |  |  |  | does not impact proliferation of 143B WT cybrids | sufficient to increase the cellular NAD^+/NADH ratio | rescued proliferation rate of 143B CytB cells to levels similar to what was observed with pyruvate addition | does not alter oxygen consumption | rescued proliferation, with proliferation rates comparable to that observed in untreated cells | restore proliferation in 143B cells over a wide range of rotenone doses | does not alleviate uridine auxotrophy of 143B CytB cells |  |  | 
N[C@@H](CC(=O)O)C(=O)O [aspartate] |  |  |  |  | did not have gross proliferation differences | nor did it affect the NAD^+/NADH ratio | capable of supporting exponential growth of 143B CytB cells | neither increased mitochondrial oxygen consumption | Proliferation was restored in response to all ETC inhibitors | restore proliferation in 143B cells over a wide range of rotenone doses |  | partially reversed the anti-proliferative effects of phenformin on wild-type cells | rescues death of GOT1-null cells upon ETC inhibition; also recorded: prevented the phenformin induced death of GOT1-null cells and even enabled these cells to proliferate in the presence of the drug | nearly impermeable to cells
